Measurements: patent publication US20210300924A1, “5-[6-[[3-(4,5,6,7-TETRAHYDROPYRAZOLO[4,3-C]PYRIDIN-1-YL)AZETIDIN-1-YL]METHYL]MORPHOLIN-4-YL]QUINOLINE-8-CARBONITRILE DERIVATIVES AND SIMILAR COMPOUNDS AS TLR7-9 ANTAGONISTS FOR TREATING SYSTEMIC LUPUS ERYTHEMATOSUS” (Hoffmann-La Roche Inc., priority 2018, published 2021)

How the values were obtained:
CYP2D6 = molecular target: T1, CYP2D6 (Homo sapiens, UniProt P10635); assay: CYP inhibition assay in human liver microsome; type: in vitro ADME; settings: human liver microsomes, probe dextromethorphan, dextromethorphan substrate, percentage inhibition <0: not or weak inhibitor, read-out: CYP 2D6 inhibition % @ 10 μM
T1 construct: tissue BD-Gentest 452117; host or cells: human liver microsomes
T1 sequence (P10635 whole entry): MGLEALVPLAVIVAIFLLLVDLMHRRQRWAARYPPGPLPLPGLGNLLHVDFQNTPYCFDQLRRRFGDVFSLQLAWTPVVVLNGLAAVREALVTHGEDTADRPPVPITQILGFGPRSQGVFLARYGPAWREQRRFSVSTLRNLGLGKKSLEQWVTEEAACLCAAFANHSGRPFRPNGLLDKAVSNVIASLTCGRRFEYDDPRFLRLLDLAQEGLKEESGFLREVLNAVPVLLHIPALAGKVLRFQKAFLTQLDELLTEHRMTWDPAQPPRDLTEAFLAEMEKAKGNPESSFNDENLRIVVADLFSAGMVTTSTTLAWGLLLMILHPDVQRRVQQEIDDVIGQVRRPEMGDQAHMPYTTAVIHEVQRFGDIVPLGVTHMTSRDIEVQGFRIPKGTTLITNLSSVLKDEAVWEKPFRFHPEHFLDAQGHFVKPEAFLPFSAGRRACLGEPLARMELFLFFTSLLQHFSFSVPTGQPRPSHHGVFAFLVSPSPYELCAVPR
Experimental: This is a high throughput screening assay used for assessment of reversible inhibition of CYP2D6 activity of test compounds in human liver microsome (HLM) in early discovery stage.
10 mM DMSO stock solutions of test compounds were diluted in DMSO to generate 2 mM intermediate stock solution. 250 nL of intermediate stock solution were transferred in duplicate into 3 separate 384 well microtitre plates (assay-ready plates). A mixture of HLM and each substrate was made up. 45 μL of HLM substrate mix was then transferred to each well of an assay ready plate and mixed. The negative (solvent) and positive control (standard inhibitor for CYP 2D6) were included in each assay ready plate. The assay ready plate was warmed to 37° C. in an incubator over 10 minutes. 5 μL pre-warmed NADPH regenerating system was added to each incubation well to start the reaction. Final incubation volume was 50 μL. The assay plate then was placed back in the 37° C. incubator. After 10 minutes incubation, incubates were quenched by addition of 50 μL 100% acetonitrile containing internal standards (20 ng/mL D3-Dextrorphan). The supernatants were collected for RapidFire/MS/MS analysis.
RapidFire online solid phase extraction/sample injection system (Agilent) coupled with API4000 triple quadrupole mass spectrometer (AB Sciex) were used for sample analysis. The mobile phase composed of acetonitrile and water supplemented with 0.1% formic acid. A C4 solid phase extraction cartridge is used for sample separation. MS detection is achieved in positive ion MRM mode.
Peak areas for substrate, metabolite and internal standard are determined using the RapidFire integrator software (version 3.6.12009.12296). Peak area ratios (PAR) of metabolite and internal standard (stable-labelled metabolite) are then calculated. The measurement window for each experiment is then defined:
PAR (0% activity)=average PAR for all incubations containing concentrated inhibitor;
Par (100% activity)=average PAR for all incubations containing no inhibitor (DMSO controls);
% Activity (test inhibitor)=
[PAR(test inhibitor)−PAR(0% activity)]/[PAR(100% activity)−PAR(0% activity)]; % Inhibition (test inhibitor)=100−% Activity (test inhibitor).

human TLR7 = molecular target: T2, human TLR7 (Homo sapiens, UniProt Q9NYK1); assay: HEK293-Blue-hTLR-7 cells assay; type: cell-based; settings: HEK293-Blue-hTLR7 cells, R848 stimulation, 20 hrs, SEAP reporter; read-out: HEK/hTLR7 IC50
T2 construct: host or cells: HEK293 (HEK-Blue hTLR7)
T2 sequence (Q9NYK1 27-1049): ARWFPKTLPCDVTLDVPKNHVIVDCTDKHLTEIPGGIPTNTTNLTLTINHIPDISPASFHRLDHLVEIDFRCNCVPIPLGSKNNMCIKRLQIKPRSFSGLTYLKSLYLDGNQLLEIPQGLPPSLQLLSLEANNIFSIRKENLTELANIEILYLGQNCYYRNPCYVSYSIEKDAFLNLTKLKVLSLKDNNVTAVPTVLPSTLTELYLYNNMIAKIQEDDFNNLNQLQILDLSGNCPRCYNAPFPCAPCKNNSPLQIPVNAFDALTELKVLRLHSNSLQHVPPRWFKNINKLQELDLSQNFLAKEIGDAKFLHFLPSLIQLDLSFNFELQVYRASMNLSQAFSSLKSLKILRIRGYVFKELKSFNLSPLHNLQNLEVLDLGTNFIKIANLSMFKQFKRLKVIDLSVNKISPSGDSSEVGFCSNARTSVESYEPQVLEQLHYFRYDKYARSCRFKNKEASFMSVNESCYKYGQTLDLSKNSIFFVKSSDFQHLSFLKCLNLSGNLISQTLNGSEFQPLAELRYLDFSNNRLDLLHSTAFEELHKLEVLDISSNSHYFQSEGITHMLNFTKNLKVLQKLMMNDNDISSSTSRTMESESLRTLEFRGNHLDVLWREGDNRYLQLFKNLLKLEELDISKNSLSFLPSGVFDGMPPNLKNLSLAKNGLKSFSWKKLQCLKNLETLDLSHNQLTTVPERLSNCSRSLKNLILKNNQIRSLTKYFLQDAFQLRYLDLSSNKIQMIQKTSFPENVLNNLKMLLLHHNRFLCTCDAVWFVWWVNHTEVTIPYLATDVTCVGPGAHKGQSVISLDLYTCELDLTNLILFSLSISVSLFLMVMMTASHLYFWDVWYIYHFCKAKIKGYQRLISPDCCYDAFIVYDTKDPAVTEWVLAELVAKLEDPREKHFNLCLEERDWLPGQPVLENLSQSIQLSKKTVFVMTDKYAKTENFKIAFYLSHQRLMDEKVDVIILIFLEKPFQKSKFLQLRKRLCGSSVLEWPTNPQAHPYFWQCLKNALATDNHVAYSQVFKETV
Text: HEK293-Blue-hTLR-7 cells assay:
A stable HEK293-Blue-hTLR-7 cell line was purchased from InvivoGen (Cat. #: hkb-htlr7, San Diego, Calif., USA). These cells were originally designed for studying the stimulation of human TLR7 by monitoring the activation of NF-κB. A SEAP (secreted embryonic alkaline phosphatase) reporter gene was placed under the control of the IFN-β minimal promoter fused to five NF-κB and AP-1-binding sites. The SEAP was induced by activating NF-κB and AP-1 via stimulating HEK-Blue hTLR7 cells with TLR7 ligands. Therefore the reporter expression was declined by TLR7 antagonist under the stimulation of a ligand, such as R848 (Resiquimod), for incubation of 20 hrs. The cell culture supernatant SEAP reporter activity was determined using QUANTI-Blue™ kit (Cat. #: rep-qb1, Invivogen, San Diego, Ca, USA) at a wavelength of 640 nm, a detection medium that turns purple or blue in the presence of alkaline phosphatase.
HEK293-Blue-hTLR7 cells were incubated at a density of 250,000-450,000 cells/mL in a volume of 170 μL in a 96-well plate in Dulbecco's Modified Eagle's medium (DMEM) containing 4.5 g/L glucose, 50 U/mL penicillin, […], […], 2 mM L-glutamine, 10% (v/v) heat-inactivated fetal bovine serum with addition of 20 μL test compound in a serial dilution in the presence of final DMSO at 1% and 10 μL of 20 uM R848 in above DMEM, perform incubation under 37° C. in a CO2 incubator for 20 hrs. Then 20 μL of the supernatant from each well was incubated with 180 μL Quanti-blue substrate solution at 37° C. for 2 hrs and the absorbance was read at 620˜655 nm using a spectrophotometer. The signaling pathway that TLR7 activation leads to downstream NF-κB activation has been widely accepted, and therefore similar reporter assay was modified for evaluating TLR7 antagonist.

Compound	inhibition at 10 min, 10 µM (CYP2D6)	IC50 (human TLR7)
Cc1nn(C2CN(C[C@H]3CN(c4ccc(C#N)c5ncccc45)C[C@@H](C)O3)C2)c2c1CCNC2 [Example 42, 5-[(2R,6S)-2-methyl-6-[[3-(3-methyl-4,5,6,7-tetrahydropyrazolo[3,4-c]pyridin-1-yl)azetidin-1-yl]methyl]morpholin-4-yl]quinoline-8-carbonitrile]	17.5%	7 nM
CC(C)N1CCc2cnn(C3CN(C[C@H]4CN(c5ccc(C#N)c6ncccc56)C[C@@H](C)O4)C3)c2C1 [Example 8, 5-[(2S,6R)-2-[[3-(6-isopropyl-5,7-dihydro-4H-pyrazolo[3,4-c]pyridin-1-yl)azetidin-1-yl]methyl]-6-methyl-morpholin-4-yl]quinoline-8-carbonitrile]	11%	18 nM
C[C@@H]1CN(c2ccc(C#N)c3ncccc23)C[C@H](CN2CC(n3cc4c(n3)[C@@H](C)CNC4)C2)O1 (single isomer, unassigned) [Example 26]	20%	6 nM
C[C@@H]1CN(c2ccc(C#N)c3ncccc23)C[C@H](CN2CC(n3cc4c(n3)CN(C)CC4)C2)O1 [Example 5, 5-[(2R,6S)-2-methyl-6-[[3-(6-methyl-5,7-dihydro-4H-pyrazolo[3,4-c]pyridin-2-yl)azetidin-1-yl]methyl]morpholin-4-yl]quinoline-8-carbonitrile]	-1.5%	4 nM
C[C@@H]1CN(c2ccc(C#N)c3ncccc23)C[C@H](CN2CC(n3ncc4c3[C@@H](C)NCC4)C2)O1 (single isomer, unassigned) [Example 31]	-3.5%	< 3 nM
